In patent EP4631937A1, “CRYSTALLINE FORM OR AMORPHOUS FORM OF OXOISOINDOLE-5-FORMAMIDE COMPOUND OR SALT AND SOLVATE THEREOF” (Hangzhou Glubio Pharmaceutical Co., Ltd., priority 2022, dated 2024):

Assays:
[1] = Pharmacokinetic evaluation in mice by gavage; format: in vivo; parameters: AUClast /D: unit not given here; conditions: CD1 male mice, oral, 30 mg/kg
Procedure: CD1 male mice were selected and the test compound was administered orally. The drug concentration in plasma at different time points was quantitatively determined by LC/MS/MS to evaluate the pharmacokinetic characteristics of the test drug in mice.
Experimental materials: CD1 Mouse (male, 20-30 g, 6-8 weeks old, Zhejiang Weitong Lihua).
Blood was collected from the dorsal plantar vein at 0.25 h, 0.5 h, 1 h, 2 h, 4 h, 6 h, 8 h and 24 h after administration, placed in an anticoagulant tube containing EDTA-K2 and mixed, and centrifuged at 4°C and 4000 g for 5 minutes. The drug concentration in blood was determined by LC-MS/MS, and the relevant pharmacokinetic parameters were calculated by the non-compartmental linear/log trapezoidal method using Phoenix WinNonlin 6.3 pharmacokinetic software.

[2] = Hygroscopicity test by DVS, with XRPD after DVS; format: physicochemical
Procedure: • DVS Intrinsic Dynamic Vapor Sorption Instrument • Gas flow rate 200 sccm, furnace temperature 25 °C.
The hygroscopicity and dehydration behavior of crystalline form B was investigated by DVS. Humidity program: 25 °C, 40-0-95-0-40% RH, dm/dt 0.002, shortest equilibrium time was 60 min, and longest equilibrium time was 360 min. XRPD was also performed on the samples after DVS test to determine whether the crystal transformation occurred.
The hygroscopicity and dehydration behavior of crystalline form E was investigated by DVS. Humidity program: 25 °C, 40-0-95-0-40% RH, dm/dt 0.002, shortest equilibrium time was 60 min, and longest equilibrium time was 360 min. XRPD was also performed on the samples after DVS test to determine whether the crystal transformation occurred.
The hygroscopicity and dehydration behavior of crystalline form G was investigated by DVS. Humidity program: 25 °C, 40-0-95-0-40% RH, dm/dt 0.002, shortest equilibrium time was 60 min, and longest equilibrium time was 360 min. XRPD was also performed on the samples after DVS test to determine whether the crystal transformation occurred.

[3] = Stability test of crystalline forms (open container at 25°C/92% RH and 40°C/75% RH, sealed container at 60°C, 13 days; XRPD, HPLC, colour); format: physicochemical
Procedure: Placed in a open container at 25°C/92% RH and 40°C/75% RH for 13 days, respectively, or in a sealed container at 60°C for 13 days. […]
(§1) Placed in a open container at 25 °C/92% RH and 40 °C/75% RH for 13 days, respectively, or in a sealed container at 60 °C for 13 days. […]
as §1

[4] = as above; format: physicochemical; conditions: 13 days; for Color / Solid (XRPD) / Chiral purity / Chemical purity: Solid; for Chiral purity / Chemical purity: HPLC/SFC
[5] = mouse, plasma, 25 mM citrate buffer (pH 3) containing 5% Tween 80
[6] = 25 °C, relative humidity 0%, listed as Crystalline form B
[7] = 25 °C, relative humidity 10%, listed as Crystalline form B
[8] = 25 °C, relative humidity 20%, listed as Crystalline form B
[9] = 25 °C, relative humidity 30%, listed as Crystalline form B
[10] = 25 °C, relative humidity 40%, listed as Crystalline form B
[11] = 25 °C, relative humidity 50%, listed as Crystalline form B
[12] = 25 °C, relative humidity 60%, listed as Crystalline form B
[13] = 25 °C, relative humidity 70%, listed as Crystalline form B
[14] = 25 °C, relative humidity 80%, listed as Crystalline form B
[15] = 25 °C, relative humidity 90%, listed as Crystalline form B
[16] = 25 °C, relative humidity 95%, listed as Crystalline form B
[17] = Solid, 40 °C/75% RH, open container, 13 days
[18] = initial, before storage, listed as Crystalline form B

In the case of O=C1CC[C@H](N2Cc3cc(C(=O)N[C@H](c4ccc(Cl)cn4)C4CCC4)ccc3C2=O)C(=O)N1 [Amorphous], the “AUClast /D” value ([1]; 25 mM citrate buffer (pH 3) containing 5% Tween 80, dose-normalised) is reported as 1178 ± 116, the AUC(0-inf) [1, 5] is reported as 35.9 ± 3.76 µg·h/mL and the AUC(0-t) [1, 5] is reported as 35.3 ± 3.48 µg·h/mL. The Cmax [1, 5] was 17.8 ± 3.13 µg/mL, the Tmax [1, 5] was 0.42 h and the half-life [1, 5] was 3.1 h.

With O=C1CC[C@H](N2Cc3cc(C(=O)N[C@H](c4ccc(Cl)cn4)C4CCC4)ccc3C2=O)C(=O)N1 [crystalline form B, N-((S)-(5-chloropyridin-2-yl)(cyclobutyl)methyl)-2-((S)-2,6-dioxopiperidin-3-yl)-1-oxoisoindoline-5-carboxamide] the “2nd adsorption weight change percentage” value ([2]; 25 °C, relative humidity 0%) was 0.0%, the “2nd desorption weight change percentage” value ([2]; 25 °C, relative humidity 0%) was 0.0% and the “1st adsorption weight change percentage” value [2, 6] was 1.6%. The “1st desorption weight change percentage” value [2, 6] was 1.6%, the “1st adsorption weight change percentage” value [2, 7] was 2.0% and the “1st desorption weight change percentage” value [2, 7] was 2.0%. The “2nd adsorption weight change percentage” value [2, 7] was 0.4%, the “2nd desorption weight change percentage” value [2, 7] was 0.4% and the “1st adsorption weight change percentage” value [2, 8] was 2.7%. The “1st desorption weight change percentage” value [2, 8] was 2.7%, the “2nd adsorption weight change percentage” value [2, 8] was 1.1% and the “2nd desorption weight change percentage” value [2, 8] was 1.1%. The “1st adsorption weight change percentage” value [2, 9] was 3.2%, the “1st desorption weight change percentage” value [2, 9] was 3.3% and the “2nd adsorption weight change percentage” value [2, 9] was 1.7%. For the same compound, the “2nd desorption weight change percentage” value [2, 9] was 1.7%, the “1st adsorption weight change percentage” value [2, 10] was 3.7% and the “1st desorption weight change percentage” value [2, 10] was 3.8%. For the same compound, the “2nd adsorption weight change percentage” value [2, 10] was 2.2%, the “2nd desorption weight change percentage” value [2, 10] was 2.3% and the “1st adsorption weight change percentage” value [2, 11] was 4.5%. The “2nd desorption weight change percentage” value [2, 11] was 3.3%, the “1st adsorption weight change percentage” value [2, 12] was 5.0% and the “2nd desorption weight change percentage” value [2, 12] was 3.9%. For the same compound, the “1st adsorption weight change percentage” value [2, 13] was 5.4%, the “2nd desorption weight change percentage” value [2, 13] was 5.4% and the “1st adsorption weight change percentage” value [2, 14] was 5.9%. The “2nd desorption weight change percentage” value [2, 14] was 5.9%, the “1st adsorption weight change percentage” value [2, 15] was 6.9% and the “2nd desorption weight change percentage” value [2, 15] was 7.3%. For the same compound, the “1st adsorption weight change percentage” value [2, 16] was 9.2%, the “2nd desorption weight change percentage” value [2, 16] was 9.2% and the “XRPD after DVS test” value ([2]; after 40-0-95-0-40% RH, 25 °C, listed as Crystalline form B) was “The crystal form did not change, see Figure 18b”. For the same compound, the “stability (crystal form)” value ([2]; hygroscopic tests of Table 17, Table 18 and Table 19, DVS 25 °C, 40-0-95-0-40% RH) was “the crystal form did not change”, the “moisture adsorbed (DVS)” value ([2]; under 40%RH-80%RH, 25 °C) was 2.2% and the “moisture adsorbed (DVS)” value ([2]; under 40%RH-95%RH, 25 °C, listed as Crystalline form B) was 5.5%. The Chemical purity ([3]; Solid, 25 °C/92% RH, open container, 13 days, HPLC/SFC) was 99.2% See Figure 15c, the Color [3, 17] was “No color change” and the “Solid (XRPD)” value [3, 17] was “The crystal form did not change, see Figure 15e”. For the same compound, the “Initial purity (HPLC/SFC) Chemical purity” value [3, 18] was 99.5% See Figure 15a, the “Initial purity (HPLC/SFC) Chiral purity” value [3, 18] was 99.0% See Figure 15b and the Color ([4]; 25 °C/92% RH, open container) was “No color change”. For the same compound, the “Solid (XRPD)” value ([4]; 25 °C/92% RH, open container) was “The crystal form did not change, see Figure 15e”, the Chiral purity ([4]; 25 °C/92% RH, open container) was 98.8% See Figure 15d and the Chemical purity ([4]; 40 °C/75% RH, open container) was 97.9% See Figure 15f. The Chiral purity ([4]; 40 °C/75% RH, open container) was 98.8% See Figure 15g, the Color ([4]; 60 °C, sealed container) was “No color change” and the “Solid (XRPD)” value ([4]; 60 °C, sealed container) was “The crystal form did not change, see Figure 15e”. For the same compound, the Chemical purity ([4]; 60 °C, sealed container) was 97.8% See Figure 15h, the Chiral purity ([4]; 60 °C, sealed container) was 98.9% See Figure 15i and the “stability (crystal form)” value ([4]; stability tests of Table 14, Table 15 and Table 16, 25°C/92% RH, 40°C/75% RH, 60°C) was “the crystal form did not change”.
